Data: the supplement of paper PMC11061612

Assays:
Assay in all cases: Bliss excess, mean over the matrix (fraction); higher = more synergy
[1] = test system: 5637 (Bladder Carcinoma)
Method in brief: (§1)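 After 24 hours at 37°C and 5% CO2 in 1536-well plates, cells in DMEM/F12 or RPMI plus 10% FBS received two-drug dose matrices for 72 hours. Viability came from CellTiter-Glo 2.0 luminescence and was scaled as inhibition, anchored at 0 by vehicle wells and at 1 by blank wells. Combination Emax is taken as the second-highest inhibition in the matrix, and Bliss excess as the observed combination effect less EA + EB − EA·EB, with EA and EB the single-agent effects.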

[2] = test system: A101D (Melanoma)
Method in brief: as §1

[3] = test system: A253 (Head and Neck Carcinoma)
Method in brief: as §1

[4] = test system: CA46 (Burkitt's Lymphoma)
Method in brief: as §1

[5] = test system: CAL-27 (Oral Cavity Carcinoma)
Method in brief: as §1

[6] = test system: CGTH-W-1 (Thyroid Gland Carcinoma)
Method in brief: as §1

[7] = test system: COLO-792 (Melanoma)
Method in brief: as §1

[8] = test system: ESO26 (Esophageal Adenocarcinoma)
Method in brief: as §1

[9] = test system: EW-7 (Ewing's Sarcoma)
Method in brief: as §1

[10] = test system: G-402 (Other Solid Carcinomas)
Method in brief: as §1

[11] = test system: HCC1428 (Breast Carcinoma)
Method in brief: as §1

[12] = test system: HCC70 (Breast Carcinoma)
Method in brief: as §1

[13] = test system: IM-9 (Non-Cancerous)
Method in brief: as §1

[14] = test system: JHU-022 (Oral Cavity Carcinoma)
Method in brief: as §1

[15] = test system: KP-N-YN (Neuroblastoma)
Method in brief: as §1

[16] = test system: LU-165 (Small Cell Lung Carcinoma)
Method in brief: as §1

[17] = test system: NCI-H1651 (Lung Adenocarcinoma)
Method in brief: as §1

[18] = test system: NCI-H2087 (Lung Adenocarcinoma)
Method in brief: as §1

[19] = test system: RH-41 (Rhabdomyosarcoma)
Method in brief: as §1

[20] = test system: SK-HEP-1 (Hepatocellular Carcinoma)
Method in brief: as §1

SMILES	Bliss excess [1]	Bliss excess [2]	Bliss excess [3]	Bliss excess [4]	Bliss excess [5]	Bliss excess [6]	Bliss excess [7]	Bliss excess [8]	Bliss excess [9]	Bliss excess [10]	Bliss excess [11]	Bliss excess [12]	Bliss excess [13]	Bliss excess [14]	Bliss excess [15]	Bliss excess [16]	Bliss excess [17]	Bliss excess [18]	Bliss excess [19]	Bliss excess [20]
C=CCn1c(=O)c2cnc(Nc3ccc(N4CCN(C)CC4)cc3)nc2n1-c1cccc(C(C)(C)O)n1 [AZD1775] + C[C@@H]1COCCN1C2=NC(=NC(=C2)C3(CC3)[S@](=N)(=O)C)C4=C5C=CNC5=NC=C4 [AZD6738] (first compound max 1 µM, partner max 10 µM)	0.007	-0.0089	0.0764	0.0061	0.0428	0.0368	0.0941	0.0102	-0.0435	-0.0458	0.0035	-0.0312	0.0274	-0.0276	-0.005	-0.0127	-0.0105	-0.0317	0.0493	-0.0271
COc1cccc(OCCCN)c1-c1cc(Nc2cnc(C#N)cn2)n[nH]1 [Prexasertib] + O=C(c1cc(Cc2n[nH]c(=O)c3ccccc23)ccc1F)N1CCN(C(=O)C2CC2)CC1 [Olaparib] (first compound max 1 µM, 7x7, partner max 10 µM)	-0.0729	-0.0549	-0.0617	-0.192	-0.0113	-0.0511	0.0173	-0.0191	-0.0465	-0.0572	0.0501	-0.0503	0.0046	-0.0537	-0.245	-0.128	-0.0471	-0.11	-0.061	-0.0127
COc1nnc2ccc(N3CCC(c4ccc(OCCN5CCN(C)C(=O)[C@H]5C)cc4)CC3)nn12 [AZD5153] + Cn1cnc2c(F)c(Nc3ccc(Br)cc3Cl)c(C(=O)NOCCO)cc21 [Selumetinib] (first compound max 1 µM, 7x7, partner max 10 µM)	0.0132	-0.081	0.0009	-0.0282	-0.0093	-0.0059	-0.055	-0.0727	-0.032	-0.0421	0.0137	0.0982	0.0322	-0.0807	-0.0967	-0.0494	-0.0319	-0.0192	-0.0176	-0.0764
COc1cccc(OCCCN)c1-c1cc(Nc2cnc(C#N)cn2)n[nH]1 [Prexasertib] + Cc1cc2ncnn2cc1Nc1ncc2c(n1)n(C1CCOCC1)c(=O)n2C [AZD7648] (first compound max 1 µM, 7x7, partner max 10 µM)	-0.0423	0.0232	-0.0228	-0.0182	0.0291	-0.0455	0.0103	0.0142	-0.0118	-0.0602	-0.0714	-0.0053	-0.014	-0.0661	-0.0221	-0.0422	-0.132	0.008	-0.0453	-0.0416
NC1(C(=O)N[C@@H](CCO)c2ccc(Cl)cc2)CCN(c2ncnc3[nH]ccc23)CC1 [Capivasertib] + CC(C)n1c(=O)n(C)c2cnc3cc(F)c(-c4ccc(OCCCN5CCCCC5)nc4)cc3c21 [AZD1390] (first compound max 10 µM, 7x7, partner max 0.3 µM)	-0.052	-0.118	-0.0597	-0.049	-0.0886	-0.0273	-0.0755	-0.053	-0.0311	-0.0731	-0.0538	-0.023	-0.0516	-0.0564	-0.112	-0.0456	-0.0404	-0.0378	-0.0364	-0.0321
COc1nnc2ccc(N3CCC(c4ccc(OCCN5CCN(C)C(=O)[C@H]5C)cc4)CC3)nn12 [AZD5153] + CC1(C)CCC(CN2CCN(c3ccc(C(=O)NS(=O)(=O)c4ccc(NCC5CCOCC5)c([N+](=O)[O-])c4)c(Oc4cnc5[nH]ccc5c4)c3)CC2)=C(c2ccc(Cl)cc2)C1 [Venetoclax] (first compound max 1 µM, 7x7, partner max 1 µM)	-0.0407	-0.0731	-0.0724	-0.052	-0.0394	-0.0407	-0.0162	-0.0776	-0.0122	-0.0478	-0.0592	-0.0013	0.0394	-0.0043	-0.0809	-0.0522	-0.0338	-0.0427	0.0374	-0.0153
CC1(C)CCC(CN2CCN(c3ccc(C(=O)NS(=O)(=O)c4ccc(NCC5CCOCC5)c([N+](=O)[O-])c4)c(Oc4cnc5[nH]ccc5c4)c3)CC2)=C(c2ccc(Cl)cc2)C1 [Venetoclax] + COc1cc(Nc2ncc3c(n2)-c2ccc(Cl)cc2C(c2c(F)cccc2OC)=NC3)ccc1C(=O)O [Alisertib] (first compound max 1 µM, 7x7, partner max 10 µM)	-0.0313	0.077	0.0091	-0.017	-0.0088	-0.0198	0.0487	-0.003	0.0262	-0.0116	0.0554	0.0437	0.043	-0.0385	0.0886	0.027	0.0211	-0.0241	0.135	-0.0578
CC1(C)CCC(CN2CCN(c3ccc(C(=O)NS(=O)(=O)c4ccc(NCC5CCOCC5)c([N+](=O)[O-])c4)c(Oc4cnc5[nH]ccc5c4)c3)CC2)=C(c2ccc(Cl)cc2)C1 [Venetoclax] + C=CCn1c(=O)c2cnc(Nc3ccc(N4CCN(C)CC4)cc3)nc2n1-c1cccc(C(C)(C)O)n1 [AZD1775] (first compound max 1 µM, partner max 1 µM)	-0.0414	-0.0188	0.0263	-0.0322	-0.0321	-0.0114	0.021	-0.0373	0.0406	-0.0625	-0.0386	0.0562	0.0228	-0.0218	0.0109	-0.0506	-0.0218	-0.0408	0.0778	-0.0252
NC1(C(=O)N[C@@H](CCO)c2ccc(Cl)cc2)CCN(c2ncnc3[nH]ccc23)CC1 [Capivasertib] + CCN(CCO)CCCOc1ccc2c(Nc3cc(CC(=O)Nc4cccc(F)c4)[nH]n3)ncnc2c1 [AZD2811] (first compound max 10 µM, 7x7, partner max 1 µM)	-0.101	-0.0282	-0.0346	-0.0519	-0.0783	0.0234	0.0486	-0.0308	0.0251	-0.0502	0.0066	-0.0506	-0.0686	-0.0261	-0.0515	-0.0323	-0.0381	-0.0243	0.0097	-0.0553
COc1cccc(OCCCN)c1-c1cc(Nc2cnc(C#N)cn2)n[nH]1 [Prexasertib] + CCc1c2c(nc3ccc(O)cc13)-c1cc3c(c(=O)n1C2)COC(=O)[C@]3(O)CC [SN-38] (first compound max 1 µM, 7x7, partner max 0.3 µM)	0.0891	-0.0308	0.0296	0.0035	0.0083	-0.0566	0.087	0.0483	-0.0713	-0.0336	0.045	-0.0259	0.0077	-0.112	-0.0158	-0.0618	-0.0551	-0.0495	0.0029	-0.0339
CN(C)CCCOc1ccc(-c2ccc3ncc4c(c3c2)n(C2CCOCC2)c(=O)n4C)cn1 [AZD0156] + C[C@@H]1COCCN1C2=NC(=NC(=C2)C3(CC3)[S@](=N)(=O)C)C4=C5C=CNC5=NC=C4 [AZD6738] (first compound max 1 µM, 7x7, partner max 10 µM)	-0.0155	0.0058	0.0145	0.0799	0.0433	-0.0189	-0.0297	0.0158	0.0318	-0.0306	-0.0541	-0.0103	0.05	-0.0103	0.0249	-0.0515	-0.0468	-0.0008	0.0593	-0.0034
Cn1cnc2c(F)c(Nc3ccc(Br)cc3Cl)c(C(=O)NOCCO)cc21 [Selumetinib] + CCN(CCO)CCCOc1ccc2c(Nc3cc(CC(=O)Nc4cccc(F)c4)[nH]n3)ncnc2c1 [AZD2811] (first compound max 10 µM, 7x7, partner max 1 µM)	0.0276	-0.0718	-0.018	-0.0093	-0.0921	-0.0329	-0.0532	-0.0374	-0.0023	-0.0137	0.0269	0.0138	-0.032	0.0079	0.0253	-0.0377	-0.0283	-0.0497	0.0363	-0.0421
Cc1c2c(nn1C)CSCc1cc(n(C)n1)CSc1cc(c3ccccc3c1)OCCCc1c(C(=O)O)n(C)c3c-2c(Cl)ccc13 [AZD5991] + C=CCn1c(=O)c2cnc(Nc3ccc(N4CCN(C)CC4)cc3)nc2n1-c1cccc(C(C)(C)O)n1 [AZD1775] (first compound max 1 µM, partner max 1 µM)	-0.0352	0.0106	0.0398	-0.0627	-0.0508	0.005	0.0348	0.0072	0.0015	0.051	-0.0407	0.0278	-0.054	-0.0072	-0.0247	0.0112	-0.11	-0.0067	0.0029	-0.0366
CC(=O)c1c(C)c2cnc(Nc3ccc(N4CCNCC4)cn3)nc2n(C2CCCC2)c1=O [Palbociclib] + Cc1c2c(nn1C)CSCc1cc(n(C)n1)CSc1cc(c3ccccc3c1)OCCCc1c(C(=O)O)n(C)c3c-2c(Cl)ccc13 [AZD5991] (first compound max 10 µM, 7x7, partner max 1 µM)	-0.0342	-0.0091	-0.134	-0.0242	-0.0869	-0.0037	-0.105	-0.0467	-0.0005	0.0106	-0.033	-0.0171	0.0229	-0.0971	0.0562	-0.0347	-0.0239	-0.0561	-0.0028	0.0434
CCc1c2c(nc3ccc(O)cc13)-c1cc3c(c(=O)n1C2)COC(=O)[C@]3(O)CC [SN-38] + CN(C)CCCOc1ccc(-c2ccc3ncc4c(c3c2)n(C2CCOCC2)c(=O)n4C)cn1 [AZD0156] (first compound max 0.3 µM, 7x7, partner max 1 µM)	0.0507	0.0006	-0.0019	0.0951	0.0255	-0.0056	-0.011	-0.0042	0.0647	0.003	-0.0584	0.0152	0.0891	-0.0034	0.0238	-0.028	-0.021	0.0485	-0.0913	0.0105
